From patent US5618726A, “Biodegradable azo dyes” (priority 1994, dated 1997)

Assays:
[1] = target: T1, horseradish peroxidase type II (Armoracia rusticana, UniProt P00433); test: Oxidation of azo dyes by horseradish peroxidase preparation; format: biochemical; settings: pH 8, 37° C., H2O2
T1 sequence (P00433 31-338): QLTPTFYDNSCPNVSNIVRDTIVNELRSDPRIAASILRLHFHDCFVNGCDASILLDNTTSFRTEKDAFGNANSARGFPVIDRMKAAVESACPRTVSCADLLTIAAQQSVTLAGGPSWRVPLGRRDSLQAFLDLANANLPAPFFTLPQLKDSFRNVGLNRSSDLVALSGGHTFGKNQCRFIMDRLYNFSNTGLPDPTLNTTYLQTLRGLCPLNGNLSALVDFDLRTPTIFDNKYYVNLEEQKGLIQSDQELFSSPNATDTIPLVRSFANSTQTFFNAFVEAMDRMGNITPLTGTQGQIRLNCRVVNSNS
Procedure: The reaction was started with the addition of 100 μl of 50 mM H2 O2 and was followed for 1 min at 37° C. Controls were run with no addition of H2 O2 or with the addition of the hemeperoxidase inhibitor KCN (final concentration 25 μM).

[2] = system: S. chromofuscus A11 extracellular peroxidase; test: Oxidation of azo dyes by S. chromofuscus A11 crude enzyme preparation; format: biochemical, Streptomyces chromofuscus A11; settings: pH 8, 37° C., H2O2
Procedure: Environ. Microbiol., 1988, 54:3057-3063. […] Microbiol. Biotechnol., 34:661-667. Incubation took place at 37° C. with shaking at 250 rpm. The culture supernatant was collected after 48 h incubation, and vacuum-filtered through Whatman no. 1 filter paper. The filtrate was concentrated approximately 40- to 50-fold by ultrafiltration through an Amicon ultrafiltration stirred cell (series no. 8000, Amicon Corp.) with a disc PM-10 filter (diameter, 76 mm). Protein in the concentrated filtrate was then precipitated from solution with 80% ammonium sulfate. The precipitate was collected by centrifugation (15 min, 10,000 rpm). The pellet was resuspended in 10 ml of 20 mM HEPES buffer (pH 8) and dialyzed overnight against the same buffer at 4° C. These preparations were then stored in 1-ml aliquots at -20° C. until used. Before using, the preparation was filtered through a NAP-25 Sephadex G-25 disposable column (Pharmacia) in order to separate a yellowish protein fraction from a pink low-molecular-weight fraction. The yellowish fraction was used as the source of enzyme. […] The reaction was started with the addition of 100 μl of 50 mM H2 O2 and was followed for 1 min at 37° C. Controls were run with no addition of H2 O2 or with the addition of the hemeperoxidase inhibitor KCN (final concentration 25 μM).

Mn(II)-peroxidase = test: Oxidation of dyes by P. chrysosporium Mn(II)-peroxidase; format: biochemical, Phanerochaete chrysosporium; settings: crude enzyme, conditions specific for Mn(II)-peroxidase
Procedure: (§1) The peroxidase assay was carried out using a composition having a final volume of 1.0 ml. The reaction mixture contained 250 μl of 100 mM HEPES buffer (pH 8), 500 μl of 10 mM 2,4-dichlorophenol, 100 μl of 1 mM aminoantipyrine, 50 μl enzyme preparation and 100 μl 50 mM H2 O2. The reaction was initiated by the addition of hydrogen peroxide at 37° C. One unit of peroxidase activity was expressed as the amount of enzyme required for an increase of one absorbance-unit-per-minute at 510 nm. Assays of manganese peroxidase and of ligninase from P. chrysosporium were carried out as previously described by Paszczynski et al in "Manganese peroxidase of Phanerochaete chrysosporium: Purification," Methods Enzymol. 161:264-270, incorporated herein by reference. […] Biophys., 1986, 44:750-765. Preparation and assay of ligninase and manganese peroxidase from these P. chrysosporium cultures were carried out as previously reported by Paszczynski, et al., Methods Enzymol., 1988, 161:264-270. […] Purification," Methods Enzymol. 161:264-270. […] Cycle time was 10 seconds, with the last measure after three minutes of incubation.

ligninase = test: Oxidation of dyes by P. chrysosporium ligninase (crude preparation); format: biochemical, Phanerochaete chrysosporium; settings: crude enzyme, conditions specific for ligninase
Procedure: as §1, with “30 seconds” for “10 seconds,”, “15 minutes. […] The reaction conditions were the same as for acid yellow 9. No decolorization” for “three minutes”, “the synthesized dyes by ligninase was detected.” for “incubation.”

[3] = system: Phanerochaete chrysosporium; test: Substrate removal / decolorization by P. chrysosporium culture; format: cell-based; settings: for % Decolorization, P. chrysosporium: 14 days
Procedure: Environ. Microbiol., 1981, 42:290-296), with the addition of 75 mg adenine (6-aminopurine) and 27 mg L-phenylalanine-per-liter. This addition accelerated the growth of the fungus without inhibiting ligninase activity. […] […] Cultures were incubated at 37° C. for 7 to 15 days with shaking (250 rpm). Solid agar media were also employed.

[4] = system: P. chrysosporium ligninolytic culture; format: cell-based, Phanerochaete chrysosporium; settings: initial 200 mg-per-liter, ten days of growth
Procedure: Decolorization of dyes in cultures were monitored at their absorption maxima at pH 4.5, or using HPLC. A Spherisorb ODS2 C18 column was used for HPLC analysis with a sequence of DMS buffer at pH 4.5 and acetonitrile as solvents (5 min 100% DMS, 15 min 100% acetonitrile, 18 min 100% acetonitrile, 19 min 100% DMS, 20 min 100% DMS, 5 min postran 100% DMS). Peaks were monitored at 260 and 450 nm. Results from spectrophotometric and HPLC methods were compared.
The initial concentration of dye was 200 mg-per-liter. Numbers represent mg-per-liter of dye remaining in the cultures.

[5] = beginning concentration 150 ppm
[6] = beginning concentration 300 ppm

## Nc1ccc(N=Nc2ccc(S(=O)(=O)O)cc2)cc1S(=O)(=O)O [compound 18]
[1]
  Oxidation rate of azo dyes, Horseradish peroxidase: 0.12 μmoles per minute per ml
[2]
  Oxidation rate of azo dyes, S. chromofuscus peroxidase: 0.15 μmoles per minute per ml
Mn(II)-peroxidase
  Oxidation rate of azo dyes, P. chrysosporium Mn-peroxidase: 0.09 μmoles per minute per ml
ligninase
  Oxidation rate of azo dyes, P. chrysosporium Ligninase: 1.38 μmoles per minute per ml
[3]; beginning concentration 100 ppm
  Concentration of substrate after ten days cultivation with P. chrysosporium: 8.387 ppm
[3]; [5]
  Concentration of substrate after ten days cultivation with P. chrysosporium: 20.342 ppm
[3]; beginning concentration 200 ppm
  Concentration of substrate after ten days cultivation with P. chrysosporium: 40.875 ppm
[3]; [6]
  Concentration of substrate after ten days cultivation with P. chrysosporium: 77.099 ppm

## O=S(=O)(O)c1ccc2c(N=Nc3ccccc3)c(O)ccc2c1 [compound 19]
[1]
  Oxidation rate of azo dyes, Horseradish peroxidase: 0.08 μmoles per minute per ml
[2]
  Oxidation rate of azo dyes, S. chromofuscus peroxidase: 0.35 μmoles per minute per ml
Mn(II)-peroxidase
  Oxidation rate of azo dyes, P. chrysosporium Mn-peroxidase: 0.10 μmoles per minute per ml
ligninase
  Oxidation rate of azo dyes, P. chrysosporium Ligninase: 2.06 μmoles per minute per ml
[3]; [5]
  Concentration of substrate after ten days cultivation with P. chrysosporium: 2.938 ppm
[3]; [6]
  Concentration of substrate after ten days cultivation with P. chrysosporium: 252.592 ppm
[3]; initial concn 150 ppm
  % Decolorization, P. chrysosporium: 93%
[3]; initial concn 300 ppm
  % Decolorization, P. chrysosporium: 87%

## Nc1c(N=Nc2ccc(-c3ccc(N=Nc4cc(S(=O)(=O)O)c5ccccc5c4N)cc3)cc2)cc(S(=O)(=O)O)c2ccccc12 [compound 20]
[4]
  Dye remaining in the cultures, HPLC: 62.20 mg-per-liter
  Dye remaining in the cultures, Spectrophotometry: 52.01 mg-per-liter

## Cc1ccc(S(=O)(=O)Oc2ccc(N=Nc3ccc(-c4ccc(N=Nc5c(O)ccc6cc(S(=O)(=O)O)cc(S(=O)(=O)O)c56)c(C)c4)cc3C)cc2)cc1 [compound 21]
[4]
  Dye remaining in the cultures, HPLC: 103.62 mg-per-liter
  Dye remaining in the cultures, Spectrophotometry: 102.38 mg-per-liter

## COc1cc(-c2ccc(N=Nc3c(S(=O)(=O)O)cc4cc(S(=O)(=O)O)cc(N)c4c3O)c(OC)c2)ccc1N=Nc1c(S(=O)(=O)O)cc2cc(S(=O)(=O)O)cc(N)c2c1O [compound 22]
[4]
  Dye remaining in the cultures, HPLC: 12.28 mg-per-liter
  Dye remaining in the cultures, Spectrophotometry: 7.64 mg-per-liter

## O=S(=O)(O)c1ccc(N=Nc2c(O)ccc3ccccc23)c2ccccc12 [compound 23]
[4]
  Dye remaining in the cultures, HPLC: 72.43 mg-per-liter
  Dye remaining in the cultures, Spectrophotometry: 89.27 mg-per-liter

## Nc1ccc2c(O)c(N=Nc3ccc(N=Nc4ccc(N=Nc5cc(S(=O)(=O)O)c6cccc(S(=O)(=O)O)c6c5)c5ccccc45)c4ccc(S(=O)(=O)O)cc34)c(S(=O)(=O)O)cc2c1 [compound 25]
[4]
  Dye remaining in the cultures, HPLC: 14.86 mg-per-liter
  Dye remaining in the cultures, Spectrophotometry: 9.66 mg-per-liter

## Nc1ccc2cc(S(=O)(=O)O)cc(O)c2c1N=Nc1ccc(NC(=O)Nc2ccc(N=Nc3c(N)ccc4cc(S(=O)(=O)O)cc(O)c34)c(S(=O)(=O)O)c2)cc1S(=O)(=O)O [compound 26]
[4]
  Dye remaining in the cultures, HPLC: 6.98 mg-per-liter
  Dye remaining in the cultures, Spectrophotometry: 4.33 mg-per-liter

## CCOc1ccc(N=Nc2ccc(C=Cc3ccc(N=Nc4ccc(OCC)cc4)cc3S(=O)(=O)O)c(S(=O)(=O)O)c2)cc1 [compound 27]
[4]
  Dye remaining in the cultures, HPLC: 29.42 mg-per-liter
  Dye remaining in the cultures, Spectrophotometry: 28.33 mg-per-liter

## COc1ccccc1NC(=O)C(N=Nc1ccc(-c2nc3ccc(C)c(S(=O)(=O)O)c3s2)cc1S(=O)(=O)O)=C(C)O [compound 29]
[4]
  Dye remaining in the cultures, HPLC: 109.39 mg-per-liter
  Dye remaining in the cultures, Spectrophotometry: 108.92 mg-per-liter

## Nc1ccc(N=Nc2ccc(S(=O)(=O)O)cc2)cc1 [compound 30]
[1]
  Oxidation rate of azo dyes, Horseradish peroxidase: 0.40 μmoles per minute per ml
[2]
  Oxidation rate of azo dyes, S. chromofuscus peroxidase: 0.00 μmoles per minute per ml
Mn(II)-peroxidase
  Oxidation rate of azo dyes, P. chrysosporium Mn-peroxidase: 0.59 μmoles per minute per ml
ligninase
  Oxidation rate of azo dyes, P. chrysosporium Ligninase: 1.58 μmoles per minute per ml
[3]; initial concn 150 ppm
  % Decolorization, P. chrysosporium: 85%
[3]; initial concn 300 ppm
  % Decolorization, P. chrysosporium: 80%
